Values quoted from earlier work in patent US7329419B2, “Herbal supplement to support weight loss” (Herbalife International, Inc., priority 2004, dated 2008).

Key:
muscle tissues = details: animal studies

Substance	increase in metabolism (compared to control)	respiratory quotient (in vivo)	energy expenditure (metabolic rate) in muscle tissues (muscle tissues)
epigallocatechin-3-gallate [EGCG]	approximately 5%	lowers the respiratory quotient	–
Gingerols	–	–	increase energy expenditure
